Measured values as given in patent US20240147998A1, “HERBICIDAL COMPOSITIONS COMPRISING IMIDAZOLINONE-BASED ACETOLACTATE SYNTHASE INHIBITORS AND USES THEREOF” (Adama Agan Ltd., priority 2021, published 2024).
Like-named read-outs stand apart in the source and are kept apart here.

Key:
[1] = Experimental: A formulation comprising imazapic, benzyl alcohol and Tween-20 as detailed in Table 1 was prepared by (i) adding benzyl alcohol to a reactor; adding Tween-20 while mixing; (iii) gradually adding imazapic and continue mixing until the solution obtained is clear; (iv) discharging said solution from the reactor; and (v) filtering the solution using a 5 μm filter.
[2] = 20° C., cited from earlier work
[3] = 20° C.; cited from earlier work

| Structure (SMILES) | solubility in organic solvents suitable for agricultural applications [1] | solubility in water ([2]; pH 5) [g/100 mL] | solubility in water ([2]; pH 7) [g/100 mL] | solubility in isopropyl alcohol [3] [g/100 mL] | solubility in methanol [3] [g/100 mL] | solubility in octanol [3] [g/100 mL] |
| --- | --- | --- | --- | --- | --- | --- |
| Cc1cnc(C2=NC(=O)C(C)(C(C)C)N2)c(C(=O)O)c1 (stereo not drawn) [imazapic] | dissolve |  |  |  |  |  |
| CC(C)N(C)S(=O)(=O)NC(=O)c1cc(-n2c(=O)cc(C(F)(F)F)n(C)c2=O)c(F)cc1Cl [saflufenacil, 2-chloro-5-[3,6-dihydro-3-methyl-2,6-dioxo-4-(trifluoromethyl)-1-(2H)pyrimidinyl]-4-fluoro-N-[[methyl(1-methylethyl)amino]sulfonyl]benzamide] |  | 0.0025 | 0.21 | 0.25 | 2.98 | < 0.01 |
